Reference: publication PMC12787074, “Involvement of Multiple Ion Channels and Receptors in Mediating the Insecticidal and Repellent Actions of Limonene” (International Journal of Molecular Sciences, 2025)

How the values were obtained:
Assay type in all cases: cell-based
[1] = target: T1, AaegRdl1-1 (Rdl, resistance to dieldrin GABA receptor) (Aedes aegypti, UniProt Q16896); experiment: two-electrode voltage clamp in Xenopus oocytes; block of GABA current
T1 construct: AaegRdl1-1 clone expressed in Xenopus oocytes
T1 sequence (Q16896 entry or part of it): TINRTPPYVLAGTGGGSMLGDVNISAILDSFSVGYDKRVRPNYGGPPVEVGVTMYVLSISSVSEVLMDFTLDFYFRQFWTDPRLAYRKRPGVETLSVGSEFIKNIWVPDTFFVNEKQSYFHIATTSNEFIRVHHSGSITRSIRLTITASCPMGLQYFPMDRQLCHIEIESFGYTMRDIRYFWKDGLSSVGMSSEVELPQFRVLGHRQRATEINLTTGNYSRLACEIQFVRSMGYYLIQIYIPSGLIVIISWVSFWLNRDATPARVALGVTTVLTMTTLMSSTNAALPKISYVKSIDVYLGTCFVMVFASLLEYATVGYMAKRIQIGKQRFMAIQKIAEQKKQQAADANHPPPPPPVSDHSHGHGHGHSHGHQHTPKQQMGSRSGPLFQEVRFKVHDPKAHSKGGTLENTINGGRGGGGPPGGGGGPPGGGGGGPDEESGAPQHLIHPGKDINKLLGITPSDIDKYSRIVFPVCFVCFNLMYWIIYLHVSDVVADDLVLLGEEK

[2] = target: T1, AaegRdl1-1 (Rdl, resistance to dieldrin GABA receptor); experiment: two-electrode voltage clamp in Xenopus oocytes; agonist-evoked chloride current
[3] = target: T1, AaegRdl1-1 (Rdl, resistance to dieldrin GABA receptor); experiment: two-electrode voltage clamp in Xenopus oocytes; potentiation of […] GABA current

For `N#Cc1nn(-c2c(Cl)cc(C(F)(F)F)cc2Cl)c(N)c1[S+]([O-])C(F)(F)F` (stereo not drawn) [fipronil], the “two-electrode voltage clamp in Xenopus oocytes; block of GABA current” value [1] was “IGABA was blocked by the application of a positive control, fipronil, as expected (Supplementary Figure S2)”.

With `NCCCC(=O)O` [GABA] the EC50 [2] was 204 ± 18.3 µM.

With `C=C(C)[C@H]1CC=C(C)CC1` [limonene] the EC50 [3] was 43.3 ± 4.6 µM.
